Laboratory results reported in paper PMC4913896, “Bioactivity-Guided Identification of Botanical Inhibitors of Ketohexokinase” (PLoS ONE, 2016).
Read-outs that look alike come from different tables or passages of the source.

Biological target: T1, recombinant human KHKC (Homo sapiens, UniProt P50053)
T1 construct: Profinity eXact fusion tag (N, cleaved yes); made in house; host or cells: E. coli BL21 (DE3), vector pPAL8; cDNA from Hep G2 cells
T1 sequence (P50053 1-298): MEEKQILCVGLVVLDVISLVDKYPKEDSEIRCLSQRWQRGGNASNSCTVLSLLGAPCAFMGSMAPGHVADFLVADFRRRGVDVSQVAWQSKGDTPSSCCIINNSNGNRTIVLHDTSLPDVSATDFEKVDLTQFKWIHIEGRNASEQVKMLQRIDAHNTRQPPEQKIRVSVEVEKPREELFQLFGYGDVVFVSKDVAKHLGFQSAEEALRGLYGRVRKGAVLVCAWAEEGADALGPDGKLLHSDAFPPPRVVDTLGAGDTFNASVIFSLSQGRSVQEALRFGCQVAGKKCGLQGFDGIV
Assay: High throughput cell-free recombinant KHKC enzymatic assay (3-step reaction, decrease in NADH at A340nm)
Assay type: biochemical
Details: for inhibition at 50 µM: read-out: KHKC Inhibition (%)
Method: Botanical extracts and phytochemicals were screened for their inhibitory activity using a high throughput cell-free enzymatic assay that utilized recombinant KHKC. KHKC activity was assayed with a 3-step reaction (Fig 2). The Synergy 2 multi-mode microplate reader was used to measure the decrease in NADH at A340nm (BioTek Instruments, Inc., Winooski, VT). For screening of the botanical extracts and phytochemicals, the KHKC enzymatic assay was carried out at 37°C in a total reaction volume of 200 ul containing 50 mM PIPES, 6 mM MgCl2, 100 mM KCl, 5 mM ATP, 2 mM phosphoenolpyruvate, 0.3 mM NADH, 15 U of pyruvate kinase, 15 U of lactate dehydrogenase, and 75 ng KHKC. The botanical extracts (50 μg/mL) and phytochemicals (50 μM) were preincubated in the reaction mixture for 15 min at 37°C. Afterwards, 1 mM fructose was added to the reactions, except for the no fructose controls, and A340nm data were collected every minute for 1 hr. The changes in absorbance were calculated for all samples based on the linear phase of the reactions and adjusted for the no fructose controls. Compared to the fructose only controls (1 mM fructose, no inhibitors), percentage inhibition of KHKC for each sample was calculated. […] For phytochemicals that inhibited KHKC by at least 40%, dose responses were conducted from 0.05 to 100 μM. IC50s against KHKC were calculated. 4-(hydroxymercuri) benzoic acid sodium salt was used as a positive inhibitory control of KHKC [36]. All chemicals were purchased from Sigma-Aldrich (St. Louis, MO).
Recombinant human KHKC proteins: Recombinant human KHKC was produced using the Profinity eXact fusion-tag system (Bio-Rad Laboratories, Hercules, CA). RNA were isolated from Hep G2 cells. CDNA was generated using 1 μg of RNA (iScript cDNA synthesis kit, Bio-Rad Laboratories). The coding sequences of KHKC were amplified using iProof high-fidelity DNA polymerase (Bio-Rad Laboratories). The following primers were used: forward primer = 5’…[…]…3’ and reverse primer = 5’…[…]…3’. The amplicons were ligated into pPAL8, a bacterial expression vector. Sequencing, performed by Beckman Coulter Genomics (Danvers, MA), confirmed that the coding sequences of the KHKC clones were a match to the National Center for Biotechnology Information’s reference sequence. The clones were transformed into BL21 (DE3) chemi-competent expression cells (Bio-Rad Laboratories). E. coli cultures were grown at 37°C in terrific broth media containing 100 μg/mL ampicillin. When the cell density (OD600) reached 0.5–0.7, the expression of KHKC was induced by adding 1 mM isopropyl β-D-1-thiogalactopyranoside. After 3–4 hr incubation, the growth culture was centrifuged at 5,000 g for 10 min at 4°C and the pellet was stored at -80°C.
For protein purification, the bacterial cell pellet was lysed using B-PER in phosphate buffer (Thermo Fisher Scientific Inc., Rockford, IL) containing AEBSF protease inhibitor (EMD Chemicals, Gibbstown, NJ). The lysate was centrifuged at 30,000 x g for 30 min at 4°C to remove cell debris. The supernatant was filtered using a […] syringe filter and then loaded (2.5 mL/min) onto the Bio-Scale Mini Profinity eXact cartridges using the Profinia protein purification instrument (Bio-Rad Laboratories). The column was first washed with 100 mL sodium phosphate, pH 7.0 (10 ml/min, CV = 10) followed by 400 mL sodium phosphate, pH 7.0 (10 ml/min, CV = 15). The protein was eluted with 100 mM sodium phosphate and 100 mM sodium fluoride, pH 7.2 and incubated for 4 hr at 4°C. The tag-less protein was stored in 20% glycerol and frozen at -80°C until use.
GraphPad Prism 5.03 (GraphPad Software, La Jolla, CA) was utilized for the data and statistical analyses. To generate a best fit, an upper concentration (10,000 μg/mL at 100% inhibition) and a lower concentration (0.001 μg/mL at 0% inhibition) were added in order to calculate the IC50s for the inhibition of KHKC and for the inhibition of fructose-induced ATP depletion. […]

[1] = phytochemical library screen, 50 μM, 1 mM fructose
[2] = phytochemicals, dose response 0.05 to 100 μM, read-out: KHKC IC50

| Compound | KHKC Inhibition (%) [1] [%] | IC50 [2] [µM] | inhibition at 50 µM [1] [%] | IC50 [µM] | inhibition at 50 µM [%] |
| --- | --- | --- | --- | --- | --- |
| 3,4',5,7-THMethoxy3'-O-B-D-Xylopyranoside | 63.3 | 3.5 | – | – | – |
| COc1cc(OC)c2ccc(=O)oc2c1CC=C(C)C [5,7-Dimethoxy-8-prenylcoumarin] | – | 10.3 | 70.4 | – | – |
| O=C(O)[C@H]1O[C@@H](Oc2cc(O)c3c(=O)cc(-c4ccc(O)cc4)oc3c2)[C@H](O)[C@@H](O)[C@@H]1O [Apigenin 7-glucuronide] | 53.1 | 16.1 | – | – | – |
| O=c1cc(-c2ccc(O)cc2)oc2cc(O[C@@H]3O[C@H](CO)[C@@H](O)[C@H](O)[C@H]3O[C@@H]3OC[C@](O)(CO)[C@H]3O)cc(O)c12 [Apiin] | – | 21.5 | 47 | – | – |
| COc1c(O)cc2c(=O)c3c(O)cc(O)c(CC=C(C)C)c3oc2c1CC=C(C)C [Cratoxyarborenone E] | – | 1 | 61.7 | – | – |
| CC(C)=CCc1c(O)ccc(C(=O)/C=C/c2ccc(O)cc2)c1O [Isobavachalcone] | – | 5.7 | 44.2 | – | – |
| CC(C)=CCc1c(-c2ccc(O)cc2O)oc2c(CC=C(C)C)c(O)cc(O)c2c1=O [Mulberrin] | 61.2 | 31.2 | – | – | – |
| COc1c(O)cc2oc(-c3ccccc3)cc(=O)c2c1O [Oroxylin A] | – | 8.2 | 42.1 | – | – |
| CC(C)=CCc1c(O)ccc2ccc(=O)oc12 [Osthenol] | – | – | – | 7.8 | 74.1 |
| COc1ccc2ccc(=O)oc2c1CC=C(C)C [Osthole] | – | 0.7 | 93.4 | – | – |
| Flavaspidic acid AB | 48.7 | 29.5 | – | – | – |
| Methoxy isobavachalcone | 70.8 | 0.2 | – | – | – |
| Swietenocoumarin B | 62.5 | 58.4 | – | – | – |
| α-/γ-Mangostin | 90.4 | 1.5 | – | – | – |
